Data published in EP2156835A1, “New therapeutic use of drotaverine” (Sanofi-Aventis, priority 2008, dated 2010).

System: human isolated detrusor muscle
Experiment: Relaxation of U46619-induced plateau of contraction in human isolated detrusor muscle strips (organ bath)
Conditions: for Emax at 100 µM / EC50: Homo sapiens; for Emax at 100 µM: at the concentration of 100 µM, percent relaxation of 1 µM U46619 plateau, 10 µM forskolin taken as 100% relaxation, read-out: maximal relaxant effect (Emax); for EC50: mean, relaxation of plateau of contraction induced by 1 µM U46619 after priming with 0.1 µM forskolin, CRC 0.03 - 100 µM, non linear regression fit, read-out: pEC50 (-log EC50) (converted)
Method: The detrusor muscle was separated from mucosa and adventitia and cut into small strips which were mounted, under 1 g initial tension, in 5 mL glass organ baths containing oxygenated Krebs-Henseleit solution (composition in mM: NaCl 114, KCl 4.7, CaCl2 2.5, MgS04 1.2, KH2PO4 1.2, NaHCO3 25, glucose 11.7) kept at 37°C. Tissues were allowed to equilibrate for at least 60 minutes during which time the Krebs solution was replaced every 15 min. After the stabilization period, a reference contraction to 80 mM KCl was performed on each strip. Tissues having a contraction less than 1 g were discarded. After wash-outs and a further 45 min of re-equilibration, during which the resting tension was adjusted periodically, each strip was primed with 0.1 µM forskolin, an adenylyl cyclise activator, for 10 min then recontracted with 1 µM U46619 for at least 20 min, until a stable plateau of contraction was obtained. Strips having a plateau of contraction less than 0.2 g were discarded. After obtaining a stable plateau of contraction, concentration-responses curves (CRC) to drotaverine and rolipram (0.03 - 100 µM) or the common vehicle (DMSO from 0.003 to 1 % in the organ bath) were performed. At the end of the CRC, the maximal relaxant effect for each strip was determined following application of 10 µM forskolin into the organ baths. Only one CRC to each substance or solvent was tested in a single strip. CRCs were constructed using 8 bladder strips from 4 different patients. Results were expressed as percent relaxation of the plateau of contraction induced by 1 µM U46619, with respect to the maximal effect obtained with 10 µM forskolin taken as 100% relaxation.
All CRCs were fitted by non linear regressions using the software GraphPad Prism® version 4.0 to obtain the following parameters: Emax: Maximal relaxation induced by the tested substance; EC50: the concentration which induces 50% of the maximum effect, expressed as pEC50 (-log EC50). Comparisons of the CRCs were performed with two-way analysis of variance (ANOVA) statistical analysis test and Bonferroni post-test. All differences will be considered statistically significant when the null hypothesis can be rejected at a risk α of less than 0.05.

Structure (SMILES)	Emax at 100 µM	EC50	relaxation of U46619-contracted detrusor strips (from 0.03 to 10 µM)	relaxation of U46619-induced detrusor muscle contraction (from 30 to 100 µM)	relaxation of U46619-induced human detrusor contraction (from 0.03 to 100 µM)
CCOc1ccc(C=C2NCCc3cc(OCC)c(OCC)cc32)cc1OCC [drotaverine, 1-[(3,4-diethoxyphenyl)methylene]-6,7-diethoxy-1,2,3,4-tetrahydro-isoquinoline]	80.8 ± 3.07%	32.4 µM	slight relaxation	significant concentration-dependent relaxation	–
COc1ccc(C2CNC(=O)C2)cc1OC1CCCC1 (stereo not shown) [rolipram]	89.5 ± 2.68%	0.151 µM	–	–	significant concentration-dependent relaxation
